Laboratory results reported in patent US6433005B1, “Benzofuran and benzothiophene derivatives as anti-inflammatory agents” (Syntex (U.S.A.) LLC, priority 2000, dated 2002).

Experiments:
COX I = target: T1, COX I (Homo sapiens, UniProt P23219); experiment: Inhibition of COX I in vitro, radiometric assay with partially purified enzyme; format: biochemical; settings: 10 min preincubation, 20 micromolar [14C] arachidonic acid
T1 construct: made in house
Experimental: (§1) The COX I and COX II inhibitory activity of compounds of this invention in vitro was determined using partially purified COX I and COX II enzymes, prepared as described in J. Bamett et al., Biochim. Biophys. Acta, 1209,130-139 (1994).
(§2) COX I and COX II samples were diluted with Tris-HCl buffer (50 mM Tris-HCl, pH 7.9) containing 2 mM EDTA and 10% glycerol and reconstituted by incubating first with 2 mM phenol for 5 minutes and then with 1 micromolar hematin for an additional 5 minutes. 125 μL of the reconstituted COX I or COX II enzyme were preincubated for 10 minutes at room temperature in a shaking water bath with the compounds of the invention dissolved in 2-15 μL of DMSO or the carrier vehicles (control samples). The enzyme reaction was initiated by adding 25 μL of 1-[14 C] arachidonic acid (80,000-100,000 cpm/tube; 20 micromolar final concentration) and the reaction was allowed to continue for an additional 45 seconds. The reaction was terminated by adding 100 μL is of 2N HCl and 750 μL water. An aliquot (950 μL) of the reaction mixture was loaded onto a 1 mL C18 Sep-Pak column (J. T. Baker, Phillipsburg, N.J.) which had been previously washed with 2-3 mL methanol and equilibrated with 5-6 mL distilled water. Oxygenated products were quantitatively eluted with 3 mL of acetonitrile/water/acetic acid (50:50:0.1, v/v) and the radioactivity in the eluate determined in a scintillation counter. Compounds of this invention were active in this assay for COX II.
(§3) The COX inhibitory activities (expressed as IC50, the concentration causing 50% inhibition of the COX enzyme being assayed) of some exemplary compounds of the invention were: […]

COX II = target: T2, COX II (Homo sapiens, UniProt P35354); experiment: Inhibition of COX II in vitro, radiometric assay with partially purified enzyme; format: biochemical; settings: 10 min preincubation, 20 micromolar [14C] arachidonic acid
T2 construct: made in house
T2 sequence (P35354 18-604): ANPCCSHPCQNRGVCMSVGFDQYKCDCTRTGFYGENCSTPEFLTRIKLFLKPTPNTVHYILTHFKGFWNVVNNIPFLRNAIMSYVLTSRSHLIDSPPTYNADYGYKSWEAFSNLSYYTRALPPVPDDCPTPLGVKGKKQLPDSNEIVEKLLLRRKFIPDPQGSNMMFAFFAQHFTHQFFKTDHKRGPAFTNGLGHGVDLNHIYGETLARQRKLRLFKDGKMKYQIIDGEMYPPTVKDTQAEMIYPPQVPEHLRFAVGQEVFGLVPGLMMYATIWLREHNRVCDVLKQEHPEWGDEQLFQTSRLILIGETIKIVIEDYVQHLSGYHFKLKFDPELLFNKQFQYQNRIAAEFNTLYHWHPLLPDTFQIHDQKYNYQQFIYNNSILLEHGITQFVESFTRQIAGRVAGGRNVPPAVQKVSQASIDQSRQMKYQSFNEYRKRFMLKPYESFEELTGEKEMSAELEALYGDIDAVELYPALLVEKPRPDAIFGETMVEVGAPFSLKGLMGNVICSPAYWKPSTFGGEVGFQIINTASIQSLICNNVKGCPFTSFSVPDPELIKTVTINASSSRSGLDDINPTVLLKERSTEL
Experimental: as §1, §2, §3

T1 sequence (P23219 24-599): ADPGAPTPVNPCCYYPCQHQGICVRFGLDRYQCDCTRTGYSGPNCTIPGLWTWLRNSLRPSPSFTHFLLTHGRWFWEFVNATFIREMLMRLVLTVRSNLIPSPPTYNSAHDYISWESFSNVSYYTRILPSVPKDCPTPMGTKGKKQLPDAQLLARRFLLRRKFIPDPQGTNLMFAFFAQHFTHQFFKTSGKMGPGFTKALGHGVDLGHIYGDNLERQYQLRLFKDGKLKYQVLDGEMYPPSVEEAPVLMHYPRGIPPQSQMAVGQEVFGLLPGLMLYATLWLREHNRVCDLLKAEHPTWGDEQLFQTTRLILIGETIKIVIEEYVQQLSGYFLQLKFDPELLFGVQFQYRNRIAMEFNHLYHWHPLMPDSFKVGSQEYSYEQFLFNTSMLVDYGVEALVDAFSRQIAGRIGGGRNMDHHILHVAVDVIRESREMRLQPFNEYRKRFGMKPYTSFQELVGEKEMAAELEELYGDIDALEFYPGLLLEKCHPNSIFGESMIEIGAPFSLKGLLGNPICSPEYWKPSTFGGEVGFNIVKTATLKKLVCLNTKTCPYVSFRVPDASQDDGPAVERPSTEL

IC50 (COX I) | IC50 (COX II) | SMILES
> 120 µM | < 1.5 µM | CS(=O)(=O)c1ccc2c(Sc3ccc(Cl)cc3Cl)c(C#N)sc2c1 [Cpd 19, 3-(2,4-dichloro-phenylsulfanyl)-6-methanesulfonyl-benzo[b]thiophene-2-carbonitrile]
> 120 µM | < 1.2 µM | CS(=O)(=O)c1ccc2c(Sc3ccccc3F)c(C#N)sc2c1 [Cpd 30, 3-(2-fluoro-phenylsulfanyl)-6-methanesulfonyl-benzo[b]thiophene-2-carbonitrile]

The next lines start with the compound.

SMILES | IC50 (COX I) | IC50 (COX II)
CS(=O)(=O)c1ccc2c(Sc3ccccc3Cl)c(C#N)sc2c1 [Cpd 17, 3-(2-chloro-phenylsulfanyl)-6-methanesulfonyl-benzo[b]thiophene-2-carbonitrile] | > 120 µM | < 1 µM
CS(=O)(=O)c1ccc2c(Sc3ccc(F)cc3)c(C#N)sc2c1 [Cpd 26, 3-(4-fluoro-phenylsulfanyl)-6-methanesulfonyl-benzo[b]thiophene-2-carbonitrile] | > 120 µM | < 1.5 µM
CCOc1ccc(Oc2c(C#N)sc3cc(S(C)(=O)=O)ccc23)cc1 [Cpd 31, 3-(4-ethoxy-phenoxy)-6-methanesulfonyl-benzo[b]thiophene-2-carbonitrile] | > 120 µM | < 1.5 µM
